From ChEMBL document CHEMBL1909046, “DrugMatrix in vitro pharmacology data”

Legend:
[1] = target: Vasopressin V1a receptor (Homo sapiens, UniProt P37288); type: cell membranes, Membrane; details: hek293; further: in other assays of this panel Not Active means under 50% inhibition at 10 µM
[2] = target: T1, C-X-C chemokine receptor type 2 (Homo sapiens, UniProt P25025); type: cell membranes, Membrane; details: cho-k1; further: in other assays of this panel Not Active means under 50% inhibition at 10 µM
T1 sequence (P25025 whole entry): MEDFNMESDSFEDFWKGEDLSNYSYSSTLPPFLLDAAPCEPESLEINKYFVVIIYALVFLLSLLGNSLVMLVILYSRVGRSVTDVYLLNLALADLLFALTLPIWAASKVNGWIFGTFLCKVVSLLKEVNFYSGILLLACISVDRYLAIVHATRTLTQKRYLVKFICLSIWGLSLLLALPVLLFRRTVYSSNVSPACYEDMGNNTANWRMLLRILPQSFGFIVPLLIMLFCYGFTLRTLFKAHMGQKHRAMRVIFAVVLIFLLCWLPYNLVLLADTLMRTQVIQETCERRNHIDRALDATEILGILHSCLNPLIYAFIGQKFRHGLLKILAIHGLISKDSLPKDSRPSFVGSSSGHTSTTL

[3] = target: T2, Cholecystokinin receptor type A (Homo sapiens, UniProt P32238); type: cell membranes, Membrane; details: 1321-n1; further: in other assays of this panel Not Active means under 50% inhibition at 10 µM
T2 sequence (P32238 whole entry): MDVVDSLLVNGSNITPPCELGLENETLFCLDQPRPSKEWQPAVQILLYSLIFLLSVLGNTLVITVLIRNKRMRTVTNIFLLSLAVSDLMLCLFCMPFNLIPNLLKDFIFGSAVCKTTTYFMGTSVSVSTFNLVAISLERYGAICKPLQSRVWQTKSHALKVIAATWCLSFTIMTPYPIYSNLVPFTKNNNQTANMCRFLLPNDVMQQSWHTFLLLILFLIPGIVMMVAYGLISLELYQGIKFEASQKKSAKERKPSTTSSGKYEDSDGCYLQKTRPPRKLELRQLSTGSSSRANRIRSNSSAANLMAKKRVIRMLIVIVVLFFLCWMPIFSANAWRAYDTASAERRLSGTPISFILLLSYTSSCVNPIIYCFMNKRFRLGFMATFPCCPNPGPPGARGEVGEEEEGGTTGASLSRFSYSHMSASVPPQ

[4] = target: T3, Endothelin-1 receptor (Homo sapiens, UniProt P25101); type: cell membranes, Membrane; details: cho-k1; further: in other assays of this panel Not Active means under 50% inhibition at 10 µM
T3 sequence (P25101 whole entry): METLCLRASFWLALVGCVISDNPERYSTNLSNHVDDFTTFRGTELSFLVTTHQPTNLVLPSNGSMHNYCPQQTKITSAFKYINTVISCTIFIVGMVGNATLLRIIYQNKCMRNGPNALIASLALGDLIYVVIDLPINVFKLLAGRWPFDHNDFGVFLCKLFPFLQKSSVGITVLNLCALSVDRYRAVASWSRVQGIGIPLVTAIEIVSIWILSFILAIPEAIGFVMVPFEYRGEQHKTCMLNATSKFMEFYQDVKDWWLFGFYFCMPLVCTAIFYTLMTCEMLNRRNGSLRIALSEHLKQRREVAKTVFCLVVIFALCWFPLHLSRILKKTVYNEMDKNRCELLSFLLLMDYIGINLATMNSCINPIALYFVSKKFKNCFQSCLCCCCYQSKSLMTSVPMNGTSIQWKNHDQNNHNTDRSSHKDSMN

[5] = target: Mu-type opioid receptor (Homo sapiens, UniProt P35372); assay: DRUGMATRIX: Opiate mu (OP3, MOP) radioligand binding (ligand: [3H] Diprenorphine); type: cell membranes, CHO-K1, Membrane; details: cho-k1; Not Active = under 50% inhibition at 10 µM
Mu-type opioid receptor, sequence (P35372 whole entry): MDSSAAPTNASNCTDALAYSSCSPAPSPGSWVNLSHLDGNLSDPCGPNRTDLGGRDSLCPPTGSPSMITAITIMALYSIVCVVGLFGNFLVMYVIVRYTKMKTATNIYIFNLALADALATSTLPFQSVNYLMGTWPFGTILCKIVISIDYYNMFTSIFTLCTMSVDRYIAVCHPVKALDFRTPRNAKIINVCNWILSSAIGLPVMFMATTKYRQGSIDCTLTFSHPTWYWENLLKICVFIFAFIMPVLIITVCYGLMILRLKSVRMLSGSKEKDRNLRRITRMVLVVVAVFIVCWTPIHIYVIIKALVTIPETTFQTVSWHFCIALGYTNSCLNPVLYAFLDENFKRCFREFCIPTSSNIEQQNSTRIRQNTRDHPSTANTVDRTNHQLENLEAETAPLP

[6] = DRUGMATRIX: Phosphodiesterase PDE4 enzyme inhibition (substrate: [3H]cAMP + cAMP); details: u-937; Not Active = under 50% inhibition at 10 µM
[7] = target: T4, Angiotensin-converting enzyme (Oryctolagus cuniculus, UniProt P12822); assay: biochemical; type: tissue-based, Lung
T4 sequence (P12822 whole entry): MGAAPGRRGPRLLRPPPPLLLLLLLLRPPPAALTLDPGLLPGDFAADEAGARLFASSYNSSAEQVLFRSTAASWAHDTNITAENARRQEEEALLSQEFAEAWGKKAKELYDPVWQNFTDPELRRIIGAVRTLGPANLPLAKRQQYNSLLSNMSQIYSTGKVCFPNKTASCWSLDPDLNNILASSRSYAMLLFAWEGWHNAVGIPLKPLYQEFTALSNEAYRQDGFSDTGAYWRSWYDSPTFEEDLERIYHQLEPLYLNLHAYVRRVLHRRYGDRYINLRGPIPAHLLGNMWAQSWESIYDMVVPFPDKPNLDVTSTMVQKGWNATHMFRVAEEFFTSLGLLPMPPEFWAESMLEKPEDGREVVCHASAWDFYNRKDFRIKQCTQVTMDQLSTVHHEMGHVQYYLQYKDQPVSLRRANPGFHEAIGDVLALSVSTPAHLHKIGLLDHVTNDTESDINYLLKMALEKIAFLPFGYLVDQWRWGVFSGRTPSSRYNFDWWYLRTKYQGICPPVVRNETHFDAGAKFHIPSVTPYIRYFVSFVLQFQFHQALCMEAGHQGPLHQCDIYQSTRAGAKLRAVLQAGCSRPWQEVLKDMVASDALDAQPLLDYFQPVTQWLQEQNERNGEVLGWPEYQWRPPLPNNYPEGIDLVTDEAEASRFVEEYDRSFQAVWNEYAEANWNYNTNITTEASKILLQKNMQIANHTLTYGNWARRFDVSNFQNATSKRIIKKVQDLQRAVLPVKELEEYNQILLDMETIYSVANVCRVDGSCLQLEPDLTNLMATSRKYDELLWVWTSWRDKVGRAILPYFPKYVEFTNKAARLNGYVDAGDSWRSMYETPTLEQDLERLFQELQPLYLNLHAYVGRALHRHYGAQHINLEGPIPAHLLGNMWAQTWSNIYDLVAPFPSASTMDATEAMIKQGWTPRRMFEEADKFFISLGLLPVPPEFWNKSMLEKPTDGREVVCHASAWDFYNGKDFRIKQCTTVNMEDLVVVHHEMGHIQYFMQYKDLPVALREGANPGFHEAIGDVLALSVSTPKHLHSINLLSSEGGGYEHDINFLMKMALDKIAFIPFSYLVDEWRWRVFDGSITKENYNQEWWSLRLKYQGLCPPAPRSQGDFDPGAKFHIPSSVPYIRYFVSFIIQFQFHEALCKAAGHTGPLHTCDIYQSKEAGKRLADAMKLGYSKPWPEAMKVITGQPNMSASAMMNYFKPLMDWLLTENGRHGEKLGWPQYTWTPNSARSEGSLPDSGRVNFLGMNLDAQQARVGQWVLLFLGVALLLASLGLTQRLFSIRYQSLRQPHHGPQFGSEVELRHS

Vasopressin V1a receptor, sequence (P37288 whole entry): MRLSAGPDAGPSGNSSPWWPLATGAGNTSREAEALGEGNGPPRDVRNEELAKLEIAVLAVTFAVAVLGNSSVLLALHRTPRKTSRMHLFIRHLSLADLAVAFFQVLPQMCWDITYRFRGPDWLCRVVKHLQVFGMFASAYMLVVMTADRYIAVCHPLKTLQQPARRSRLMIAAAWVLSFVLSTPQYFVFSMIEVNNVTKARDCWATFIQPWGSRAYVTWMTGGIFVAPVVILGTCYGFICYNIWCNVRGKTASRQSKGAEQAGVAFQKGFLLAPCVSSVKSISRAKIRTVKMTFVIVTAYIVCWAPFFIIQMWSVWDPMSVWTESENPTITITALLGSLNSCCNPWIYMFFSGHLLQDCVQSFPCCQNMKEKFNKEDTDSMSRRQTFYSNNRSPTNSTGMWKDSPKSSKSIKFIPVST

COc1ccc2cc(CC(=O)O)ccc2c1
Not Active: IC50 [1] | IC50 [2] | IC50 [3] | IC50 [4] | IC50 [5] | IC50 [6] | Ki [6] | IC50 [7]

CC(C)NC[C@H](O)COc1cccc2[nH]ccc12
Not Active: IC50 [1] | IC50 [2] | IC50 [3] | IC50 [4] | IC50 [5] | IC50 [6] | Ki [6] | IC50 [7]

c1ccc2c(c1)cc1ccc3cccc4ccc2c1c34
Not Active: IC50 [1] | IC50 [2] | IC50 [3] | IC50 [4] | IC50 [6] | Ki [6] | IC50 [7]

CC=CC(=O)N(CC)c1ccccc1C
Not Active: IC50 [1] | IC50 [2] | IC50 [3] | IC50 [4] | IC50 [5] | IC50 [6] | Ki [6] | IC50 [7]

CC(/C=C1\SC(=S)N(CC(=O)O)C1=O)=C\c1ccccc1
Not Active: IC50 [1] | IC50 [2] | IC50 [3] | IC50 [4] | IC50 [5] | IC50 [6] | Ki [6] | IC50 [7]

CCCCCCCCCc1ccc(O)cc1 [4-NONYLPHENOL]
Not Active: IC50 [1] | IC50 [2] | IC50 [3] | IC50 [4] | IC50 [6] | Ki [6] | IC50 [7]

N#C[C@H](O[C@@H]1O[C@H](CO[C@@H]2O[C@H](CO)[C@@H](O)[C@H](O)[C@H]2O)[C@@H](O)[C@H](O)[C@H]1O)c1ccccc1 [AMYGDALIN]
Not Active: IC50 [1] | IC50 [2] | IC50 [3] | IC50 [4] | IC50 [6] | Ki [6] | IC50 [7]

C=C1[C@@H]2CCC3[C@@](CC[C@@H]4[C@H](C(=O)O)C[C@@H](O[C@@H]5O[C@H](CO)[C@@H](OS(=O)(=O)[O-])[C@H](OS(=O)(=O)[O-])[C@H]5OC(=O)CC(C)C)C[C@@]34C)(C2)[C@@H]1O.[K+].[K+] (some centres undefined) [ATRACTYLOSIDE]
Not Active: IC50 [1] | IC50 [2] | IC50 [3] | IC50 [4] | IC50 [6] | Ki [6] | IC50 [7]

CCCC[C@@H](CC)COC(=O)c1ccccc1C(=O)OC[C@@H](CC)CCCC [BIS(2-ETHYLHEXYL)PHTHALATE]
Not Active: IC50 [1] | IC50 [2] | IC50 [3] | IC50 [4] | IC50 [6] | Ki [6] | IC50 [7]

CN1C[C@H](C(=O)N[C@]2(C)O[C@@]3(O)[C@@H]4CCCN4C(=O)[C@H](Cc4ccccc4)N3C2=O)C=C2c3cccc4[nH]cc(c34)C[C@H]21 [ERGOTAMINE]
Not Active: IC50 [1] | IC50 [2] | IC50 [3] | IC50 [4] | IC50 [6] | Ki [6] | IC50 [7]

C=C(C)[C@@H]1[C@H]2OC(=O)[C@@H]1[C@]1(O)C[C@H]3O[C@]34C(=O)O[C@H]2[C@]14C [PICROTOXININ]
Not Active: IC50 [1] | IC50 [2] | IC50 [3] | IC50 [4] | IC50 [6] | Ki [6] | IC50 [7]

CARBOPLATIN
Not Active: IC50 [1] | Ki [1] | IC50 [2] | Ki [2] | IC50 [3] | Ki [3] | IC50 [4] | Ki [4] | IC50 [6] | Ki [6] | IC50 [7] | Ki [7]

CISPLATIN
13.5 µM: IC50 ([2]; read-out: IC50)
9.46 µM: Ki ([2]; read-out: Ki)
Not Active: IC50 [1] | Ki [1] | IC50 [3] | Ki [3] | IC50 [4] | Ki [4] | IC50 [6] | Ki [6] | IC50 [7] | Ki [7]

GOLD SODIUM THIOMALATE
Not Active: IC50 [1] | Ki [1] | IC50 [2] | Ki [2] | IC50 [3] | Ki [3] | IC50 [4] | Ki [4] | IC50 [6] | Ki [6] | IC50 [7] | Ki [7]

OXALIPLATIN
Not Active: IC50 [1] | Ki [1] | IC50 [2] | Ki [2] | IC50 [3] | Ki [3] | IC50 [4] | Ki [4] | IC50 [6] | Ki [6] | IC50 [7] | Ki [7]
